Measured values as given in patent publication US20240280589A1, “USE OF FIBRONECTIN IN PREDICTING PREECLAMPSIA” (Sinai Health System, priority 2023, published 2024).

Key:
Format in all cases: cell-based, human
[1] = test system: JEG3 cells; assay: Western blot for fibronectin in sEVs from JEG3 cell conditioned media
Protocol: Subsequent Western blotting was performed.

[2] = test system: JEG3 cells; assay: Immunofluorescence co-localization of fibronectin with CD63/RAB7 in JEG3 cells
[3] = test system: preeclampsia pMSCs; assay: Exposure of preeclampsia placental mesenchymal stromal cells (pMSCs)
[4] = test system: placental villous explants; assay: Fibronectin in sEVs from placental villous explant culture; conditions: E-PE villous explants maintained at 3% O2, Hinokitiol
Protocol: Villous explants were isolated and cultured in 12-well plates with mesh inserts, from term control (n=3) and E-PE placentae (n=3). Term explants were maintained at normoxia (8% O2) or hypoxia (3% O2), while E-PE explants were maintained at 3% O2 (constituting their normoxia) and treated with […] Hinokitiol. Following incubation with their respective treatments, explant tissue was snap-frozen in liquid nitrogen for protein extraction and downstream analyses, while small extracellular vesicles (sEVs) were isolated from conditioned media by ultrafiltration using Amicon® Ultra-4 Centrifugal Filter Units (UFC8100, Millipore Sigma). […] Subsequent Western blotting was performed.

CC(C)c1cccc(=O)c(O)c1 [Hinokitiol]
sEV fibronectin content ([1]; JEG3 cells at 3% O2, 24 hours, 1 μM, normalized to CD63): significantly reduced sEV fibronectin content to control levels
sEV fibronectin levels ([1]; JEG3 cells at 21% O2): no discernible effect
Pearson's Correlation Coefficient between fibronectin and CD63 ([2]; 3% O2 + 1 μM Hinokitiol): 0.31
fibronectin co-localization with late endosomal marker RAB7 and sEV marker CD63 ([2]; 3% O2, relative to hypoxia alone): attenuated fibronectin co-localization
fibronectin fibrillar deposition [3]: improved
labile (useable) intracellular iron pool [3]: restored
fibronectin increase in explant-derived sEVs [4]: attenuated
